Species: Rattus norvegicus
Experiment: DrugMatrix - Regimen: Daily Repeat
Assay type: toxicity, organism-based, Sprague-Dawley
Set-up: regimen Daily Repeat, gender Male, age 6-8 weeks
Settings: in vivo, po, route oral GAVAGE, vehicle 100 % WATER; for ABSOLUTE BASOPHIL / ABSOLUTE EOSINOPHIL / ABSOLUTE LYMPHOCYTE / ABSOLUTE MONOCYTE / ABSOLUTE SEGMENTED NEUTROPHIL / BASOPHIL / EOSINOPHIL / ERYTHROCYTE COUNT / HEMATOCRIT / HEMOGLOBIN / LEUKOCYTE COUNT / LYMPHOCYTE / MEAN CORPUSCULAR HEMOGLOBIN / MEAN CORPUSCULAR HEMOGLOBIN CONCENTRATION / MEAN CORPUSCULAR VOLUME / MONOCYTE / NEUTROPHIL / NUCLEATED RED BLOOD CELLS / PLATELET COUNT: tissue Blood; for ALANINE AMINOTRANSFERASE / ALBUMIN / ALKALINE PHOSPHATASE / ASPARTATE AMINOTRANSFERASE / BLOOD UREA NITROGEN / CARBON DIOXIDE / CHLORIDE / CHOLESTEROL / CREATINE PHOSPHOKINASE / CREATININE / GLUCOSE / LACTATE DEHYDROGENASE / LIPASE / PHOSPHORUS / POTASSIUM / SODIUM / TOTAL BILIRUBIN / TOTAL PROTEIN / URIC ACID: tissue Plasma
[1] = 0 mg/kg, 72 h, dose level Control, time 3 day
[2] = 0 mg/kg, 120 h, dose level Control, time 5 day
[3] = 25 mg/kg, 72 h, dose level High, time 3 day

O=P1(N(CCCl)CCCl)NCCCO1 (centres undefined) [CYCLOPHOSPHAMIDE ANHYDROUS]
ABSOLUTE BASOPHIL [1]: 0 CELLS/uL | ABSOLUTE EOSINOPHIL [1]: 32.5 CELLS/uL | ABSOLUTE LYMPHOCYTE [1]: 9305.83 CELLS/uL | ABSOLUTE MONOCYTE [1]: 43.83 CELLS/uL | ABSOLUTE SEGMENTED NEUTROPHIL [1]: 817.83 CELLS/uL | BASOPHIL [1]: 0% | EOSINOPHIL [1]: 0.33% | ERYTHROCYTE COUNT [1]: 5.38 x10E6/uL | HEMATOCRIT [1]: 33.63% | HEMOGLOBIN [1]: 13.17 G/DL | LEUKOCYTE COUNT [1]: 10.2 x10E3/uL | LYMPHOCYTE [1]: 91.17% | MEAN CORPUSCULAR HEMOGLOBIN [1]: 24.5 pg | MEAN CORPUSCULAR HEMOGLOBIN CONCENTRATION [1]: 39.13 G/DL | MEAN CORPUSCULAR VOLUME [1]: 62.53 fL | MONOCYTE [1]: 0.5% | NEUTROPHIL [1]: 8% | NUCLEATED RED BLOOD CELLS [1]: 0.17 /100WBC | PLATELET COUNT [1]: 858 x10E3/uL | ALANINE AMINOTRANSFERASE [1]: 55.67 u/L | ALBUMIN [1]: 4.07 G/DL | ALKALINE PHOSPHATASE [1]: 337 u/L | ASPARTATE AMINOTRANSFERASE [1]: 84 u/L | BLOOD UREA NITROGEN [1]: 13.17 mg/dL | CARBON DIOXIDE [1]: 34.17 mmol/L | CHLORIDE [1]: 99.33 MEQ/L | CHOLESTEROL [1]: 78.83 mg/dL | CREATINE PHOSPHOKINASE [1]: 576.83 u/L | CREATININE [1]: 0.17 mg/dL | GLUCOSE [1]: 152.67 mg/dL | LACTATE DEHYDROGENASE [1]: 147.83 u/L | LIPASE [1]: 9.5 u/L | PHOSPHORUS [1]: 10.78 mg/dL | POTASSIUM [1]: 6.34 MEQ/L | SODIUM [1]: 144.12 MEQ/L | TOTAL BILIRUBIN [1]: 0.18 mg/dL | TOTAL PROTEIN [1]: 6.08 G/DL | URIC ACID [1]: 0.65 mg/dL | ABSOLUTE BASOPHIL [2]: 0 CELLS/uL | ABSOLUTE EOSINOPHIL [2]: 31.17 CELLS/uL | ABSOLUTE LYMPHOCYTE [2]: 7918.33 CELLS/uL | ABSOLUTE MONOCYTE [2]: 58.33 CELLS/uL | ABSOLUTE SEGMENTED NEUTROPHIL [2]: 725.5 CELLS/uL | BASOPHIL [2]: 0% | EOSINOPHIL [2]: 0.33% | ERYTHROCYTE COUNT [2]: 5.32 x10E6/uL | HEMATOCRIT [2]: 33.53% | HEMOGLOBIN [2]: 13.17 G/DL | LEUKOCYTE COUNT [2]: 8.73 x10E3/uL | LYMPHOCYTE [2]: 90.33% | MEAN CORPUSCULAR HEMOGLOBIN [2]: 24.82 pg | MEAN CORPUSCULAR HEMOGLOBIN CONCENTRATION [2]: 39.33 G/DL | MEAN CORPUSCULAR VOLUME [2]: 63.12 fL | MONOCYTE [2]: 0.67% | NEUTROPHIL [2]: 8.67% | NUCLEATED RED BLOOD CELLS [2]: 0 /100WBC | PLATELET COUNT [2]: 1144.83 x10E3/uL | ALANINE AMINOTRANSFERASE [2]: 60.5 u/L | ALBUMIN [2]: 3.97 G/DL | ALKALINE PHOSPHATASE [2]: 343.17 u/L | ASPARTATE AMINOTRANSFERASE [2]: 80.83 u/L | BLOOD UREA NITROGEN [2]: 15 mg/dL | CARBON DIOXIDE [2]: 31 mmol/L | CHLORIDE [2]: 99.75 MEQ/L | CHOLESTEROL [2]: 71.5 mg/dL | CREATINE PHOSPHOKINASE [2]: 237.17 u/L | CREATININE [2]: 0.17 mg/dL | GLUCOSE [2]: 137 mg/dL | LACTATE DEHYDROGENASE [2]: 146.17 u/L | LIPASE [2]: 11.5 u/L | PHOSPHORUS [2]: 10.13 mg/dL | POTASSIUM [2]: 6 MEQ/L | SODIUM [2]: 145 MEQ/L | TOTAL BILIRUBIN [2]: 0.13 mg/dL | TOTAL PROTEIN [2]: 5.82 G/DL | URIC ACID [2]: 0.62 mg/dL | ABSOLUTE BASOPHIL [3]: 0 CELLS/uL | ABSOLUTE EOSINOPHIL [3]: 0 CELLS/uL | ABSOLUTE LYMPHOCYTE [3]: 2636 CELLS/uL | ABSOLUTE MONOCYTE [3]: 11 CELLS/uL | ABSOLUTE SEGMENTED NEUTROPHIL [3]: 486.33 CELLS/uL | BASOPHIL [3]: 0% | EOSINOPHIL [3]: 0% | ERYTHROCYTE COUNT [3]: 5 x10E6/uL | HEMATOCRIT [3]: 30.93% | HEMOGLOBIN [3]: 12.33 G/DL | LEUKOCYTE COUNT [3]: 3.13 x10E3/uL | LYMPHOCYTE [3]: 83.67% | MEAN CORPUSCULAR HEMOGLOBIN [3]: 24.73 pg | MEAN CORPUSCULAR HEMOGLOBIN CONCENTRATION [3]: 39.87 G/DL | MEAN CORPUSCULAR VOLUME [3]: 61.97 fL | MONOCYTE [3]: 0.33% | NEUTROPHIL [3]: 16% | NUCLEATED RED BLOOD CELLS [3]: 0 /100WBC | PLATELET COUNT [3]: 636 x10E3/uL | ALANINE AMINOTRANSFERASE [3]: 49.33 u/L | ALBUMIN [3]: 4.03 G/DL | ALKALINE PHOSPHATASE [3]: 291 u/L | ASPARTATE AMINOTRANSFERASE [3]: 68 u/L | BLOOD UREA NITROGEN [3]: 15.67 mg/dL | CARBON DIOXIDE [3]: 34 mmol/L | CHLORIDE [3]: 99.5 MEQ/L | CHOLESTEROL [3]: 84.67 mg/dL | CREATINE PHOSPHOKINASE [3]: 160 u/L | CREATININE [3]: 0.13 mg/dL | GLUCOSE [3]: 147 mg/dL | LACTATE DEHYDROGENASE [3]: 134 u/L | LIPASE [3]: 9.67 u/L | PHOSPHORUS [3]: 10.63 mg/dL | POTASSIUM [3]: 5.82 MEQ/L | SODIUM [3]: 144.75 MEQ/L | TOTAL BILIRUBIN [3]: 0.17 mg/dL | TOTAL PROTEIN [3]: 5.77 G/DL | URIC ACID [3]: 0.33 mg/dL

Source: ChEMBL document CHEMBL3885881, “DrugMatrix”
